Consider eight compounds from patent US11999718B2, “Pyrazole derivatives” (Aptabio Therapeutics Inc., priority 2021, dated 2024).

Assay [1] relates to HL-60 cells differentiated into neutrophil cells. The assay can be described thus: ROS production induced by PMA in HL-60 cells differentiated into neutrophil cells. The assay is classed as cell-based. Particulars: Homo sapiens, 0.5 h; differentiated HL-60 cells, compounds 0.5 uM (0.5 mM in the source) for 30 minutes, 200 nM PMA, L-012 luminescence. An excerpt: (§1) In order to confirm the effect of the compounds of Synthetic examples on ROS production from fibroblasts and specific substrate cells, ROS production was induced by stimulation of PMA (phorbol 12-myristate 13-acetate), TGF-β1, palmitate or high concentration-glucose, or the like, in HL-60 cells differentiated into neutrophil cells by DMSO treatment, NHLF (normal human lung fibroblast, Lonza), LX-2 (human hepatic stellate cells, Sigma), ARPE19 (human retinal pigment epithelial cell, ATCC), and KEL-FIB (Keloid fibroblast, ATCC) cells, and under this condition, the inhibitory effect of ROS production of the compounds of Synthetic Examples was observed.
HL-60 cells (human leukemia cells, ATCC) were suspended in a medium containing 1.25% DMSO (RPMI+10% FBS) and cultured under the condition of 5% CO2, 37° C. for 6 days, thereby inducing differentiation into neutrophil cells. […] Then, to each well comprising the cells and drug, 200 nM PMA was treated to induce ROS production, and such ROS production was measured by observing the luminescence level of each well using 100 μM L-012.

A further assay deals with HFF-1 cells. Briefly: Collagen gel contraction induced by TGF-β1 in HFF-1 cells. The format is cell-based, human. Particulars: HFF-1 cells in collagen gel, TGF-β1 10 ng/ml, 72 hours, FIG. 7. From the text: In order to confirm the effect of the compounds of Synthetic examples on differentiation of fibroblasts into myofibroblasts, the inhibitory effect of the compounds of Synthetic examples on the phenomenon of contraction of gel induced by interaction of human foreskin fibroblasts (HFF-1, ATCC) and collagen was observed.
The mixed solution of the HFF-1 cells and collagen (bovine type I collagen) prepared at a concentration of 3×10^6 cells/ml was aliquoted in a 24 well plate, respectively, and then cultured under the condition of 5% CO2, 37° C. for 1 hour to induce gel polymerization. Then, after suspending the gel attached on the plate from the plate using a spoon, a medium comprising TGF-β1 and Synthetic example compounds was added to each well. After culturing for 72 hours, the Synthetic example compounds were treated by 10, 20, 30, 40, 60 and 80 μM to measure the size of the gel, and thereby, the degree of contraction of the gel by drug treatment was confirmed.

A further assay deals with IL-6. The assay can be described thus: Expression of IL-6 in pancreatic cancer associated fibroblasts (ELISA). The format is cell-based, human. The settings on record: P.CAF cells, 48 hours treatment, FIG. 5. The method, then: (§2) In order to confirm the effect of the compounds of Synthetic examples of the present invention on inflammation reaction in cancer associated fibroblasts, whether the expression of IL6 and IL8 was inhibited by the compounds of Synthetic examples in pancreatic cancer associated fibroblasts (P.CAF) was observed.
(§3) After inoculating 1.5×10^5 cells in a 6 well plate and then culturing in P.CAF complete media for 48 hours, the compounds of Synthetic examples were treated by 10, 20, 30, 40, 60 and 80 μM for 48 hours according to each condition, and then the expression of IL-6 and IL-8 was confirmed by performing ELISA with Quantkine ELISA kit (R&D systems) as follows.
(§4) 100 μl of the culture solution in which the compounds of Synthetic examples were treated for 48 hours was added to the microplate strip for analysis including a 100 μl assay diluent and left at a room temperature for 2 hours and then the contents were removed, and then it was washed with 400 μl wash buffer 4 times. 200 μl of a human IL-6 or IL-8 conjugate was added and left at a room temperature for 2 hours and then the contents were removed, and then it was washed with 400 μl wash buffer 4 times. 200 μl of substrate solution was added and left at a room temperature for 20 minutes and then 50 μl of stop solution was added, and the absorbance at a wavelength of 450 nm was measured within 30 minutes to confirm the expression level of IL-6 and IL-8.
(In an ELISA, binding on a coated surface is turned into a signal by an enzyme label.)

Another assay relates to IL-8. The assay can be described thus: Expression of IL-8 in pancreatic cancer associated fibroblasts (ELISA). The assay is classed as cell-based, human. The settings on record: P.CAF cells, 48 hours treatment, FIG. 6. How it is done: as §2, §3, §4
A further assay has as its system N27 cells. Briefly: ROS production induced by alpha-synuclein preformed fibril (PFF) in N27 cells. The assay is classed as cell-based, rat. The settings on record: 0.001 μM compound, 24 hours, CellROX-Deep Red, FIG. 2. The method, then: In order to confirm the effect of the compounds of Synthetic examples on ROS production from dopaminergic neural cells, ROS production was induced by alpha-synuclein preformed fibril (PFF) stimulation on N27 (rat dopaminergic neural cell, Sigma) cells and under this condition, the inhibitory effect of ROS production of the compounds of Synthetic examples was observed.
The N27 cells were cultured in RPMI medium containing 10% FBS, 1 μM angiotensin II, and the prepared cells were aliquoted at a concentration of 4×10^3 cells/well on a 6-well plate. The ROS production stimulus, PFF (preformed fibril) and the compounds of Synthetic examples were treated to the cells. After treating the compounds of Synthetic examples for 24 hours, fluorescence of each well was measured using CellROX-Deep Red reagent, thereby confirming the degree of ROS production.

The next assay deals with LX-2 cells. Briefly: ROS production induced by PMA in LX-2 cells. The settings on record: FIG. 1. The assay is classed as cell-based, human.
Excerpt: as §1
(§5) The NHLF (normal human lung fibroblast, Lonza), LX-2 (human hepatic stellate cells, Sigma), ARPE19 (human retinal pigment epithelial cell, ATCC), KEL-FIB (keloid fibroblast, ATCC) cells were suspended in a culture medium containing 10% FBS and aliquoted on a 96 well plate and then cultured under the condition of 5% CO2, 37° C. for 24 hours. After pre-treating the compounds of Synthetic examples at a concentration of 10, 20, 30, 40, 60 and 80 μM for 30 minutes to 1 hour, the ROS stimulus was treated to each well containing the cells and drug. After additional culturing for 48 hours, the ROS production level was confirmed using L-012 or DCF-DA.

Another assay deals with NHLF cells. The assay can be described thus: ROS production induced by PMA in NHLF cells. The format is cell-based, human. Particulars: FIG. 1.
Excerpt: as §1, §5

Each structure is given as a SMILES string. Where only a bound is given, the exact number is not on record here.

In assay [1], `CN(Cc1ccc(F)cc1F)C1CCc2nn(-c3ccccn3)c(O)c2C1` (stereo not shown) [Compound 5, 5-[(2,4-Difluorobenzyl)methylamino]-2-(pyridin-2-yl)-4,5,6,7-tetrahydro-2H-indazol-3-ol] yielded an inhibition at 0.5 µM greater than 70%. Besides, the “contraction of the gel induced by TGF-β1” value with HFF-1 cells is recorded as “effectively inhibited”. In addition, in the assay on IL-6, the “IL-6 expressed in P.CAF” value is “effectively inhibited”. Besides, the “IL-8 expressed in P.CAF” value with IL-8 was “effectively inhibited”.

As for `O=C(C1CC1)N1CCN(C2CCc3nn(-c4ccccn4)c(O)c3C2)CC1` (stereo not shown) [Compound 38, Cyclopropyl[4-(3-hydroxy-2-(pyridin-2-yl)-4,5,6,7-tetrahydro-2-indazol-5-yl)piperazin-1-yl]methanone], in assay [1], the inhibition at 0.5 µM is greater than 70%. In addition, in the assay with HFF-1 cells, the “contraction of the gel induced by TGF-β1” value was “effectively inhibited”. Further, the “IL-6 expressed in P.CAF” value with IL-6 was “effectively inhibited”. Also, the “IL-8 expressed in P.CAF” value with IL-8 was “effectively inhibited”.

`CN1CCN(C2CCc3nn(-c4ccc(C(F)(F)F)cn4)c(O)c3C2)CC1` (stereo not shown) [Compound 82, 5-(4-Methylpiperazin-1-yl)-2-(5-(trifluoromethyl)pyridin-2-yl)-4,5,6,7-tetrahydro-2H-indazol-3-ol] showed an inhibition at 0.5 µM in assay [1] of 50 to 70%. Moreover, in the assay on N27 cells, the “ROS production induced by PFF” value was “effectively inhibited”.

`CN(Cc1cccc(S(C)(=O)=O)c1)C1CCc2nn(-c3ccccn3)c(O)c2C1` (stereo not shown) [Compound 23, 5-[Methyl(3-methylsulfonylbenzyl)amino]-2-(pyridin-2-yl)-4,5,6,7-tetrahydro-2H-indazol-3-ol]: in assay [1], the inhibition at 0.5 µM lay in the range of 50 to 70%. Besides, in the assay on HFF-1 cells, the “contraction of the gel induced by TGF-β1” value was “effectively inhibited”. The “IL-6 expressed in P.CAF” value in the assay on IL-6 is reported as “effectively inhibited”. Moreover, the “IL-8 expressed in P.CAF” value with IL-8 is “effectively inhibited”.

As to `OCCOCCN1CCN(C2CCc3nn(-c4ccccn4)c(O)c3C2)CC1` (stereo not shown) [Compound 17, 5-{4-[2-(2-hydroxyethoxy)-ethyl]-piperazin-1-yl}-2-pyridin-2-yl-4,5,6,7-tetrahydro-2H-indazol-3-ol], the inhibition at 0.5 µM in assay [1] was greater than 70%. For the same compound, the “ROS production induced by PMA” value with LX-2 cells and in the assay with NHLF cells was “inhibited” throughout.

`Oc1c2c(nn1-c1ccccn1)CCC(Nc1ccc(F)c(F)c1)C2` (stereo not shown) [Compound 32, 5-(3,4-Difluorophenylamino)-2-(pyridin-2-yl)-4,5,6,7-tetrahydro-2H-indazol-3-ol] gave an inhibition at 0.5 µM in assay [1] of 50 to 70%. In addition, the “ROS production induced by PFF” value in the assay with N27 cells is “effectively inhibited”.

Compound `CN(Cc1ccc(S(C)(=O)=O)cc1)C1CCc2nn(-c3ccccn3)c(O)c2C1` (stereo not shown) [Compound 12, 5-[(4-Methanesulfonylbenzyl)methylamino]-2-(pyridin-2-yl)-4,5,6,7-tetrahydro-2H-indazol-3-ol] gave an inhibition at 0.5 µM in assay [1] greater than 70%. In addition, the “contraction of the gel induced by TGF-β1” value with HFF-1 cells was “effectively inhibited”. In the assay on N27 cells, the “ROS production induced by PFF” value is listed as “effectively inhibited”.

On to `CN1CCN(C2CCc3nn(-c4ccccn4)c(O)c3C2)CC1` (stereo not shown) [Compound 16, 5-(4-Methylpiperazin-1-yl)-2-(pyridin-2-yl)-4,5,6,7-tetrahydro-2H-indazol-3-ol], for which the inhibition at 0.5 µM in assay [1] was greater than 70%. For the same compound, the “contraction of the gel induced by TGF-β1” value in the assay on HFF-1 cells is given as “effectively inhibited”. For the same compound, the “ROS production induced by PFF” value in the assay with N27 cells is “effectively inhibited”.

A word on the inhibition: it is how much of the control response was suppressed. Higher therefore signals strong suppression.
